Data published in US20230265151A1, “GIP/GLP1 CO-AGONIST COMPOUNDS” (priority 2020, published 2023).
Where two headings read alike, the source gives them in different places. Where a SMILES comes first, the peptide text is derived from it. Side-chain parts run from the residue outwards. [ ]: non-standard residue; d: D form. The star is where a group is joined. αMePhe(2-F) = C[C@](N)(Cc1ccccc1F)C(=O)O; C14 diacid = O=C(O)CCCCCCCCCCCCC(=O)*; αMeY = C[C@](N)(Cc1ccc(O)cc1)C(=O)O; αMeL = CC(C)C[C@](C)(N)C(=O)O; Orn = NCCC[C@H](N)C(=O)O; AEEA = NCCOCCOCC(=O)O; Aib = CC(C)(N)C(=O)O

Assays:
Type in all cases: cell-based
hGIPR = molecular target: T1, hGIPR (Homo sapiens, UniProt P48546); experiment: Functional cAMP formation (HTRF) in HEK-293 clonal cells expressing hGIPR, 0.1% bovine casein, without or with 1.0% human serum albumin; settings: 37° C.; for Emax: read-out: hGIPR Emax, % ± SEM
T1 construct: expressed in transfected cells
T1 sequence (P48546 22-466): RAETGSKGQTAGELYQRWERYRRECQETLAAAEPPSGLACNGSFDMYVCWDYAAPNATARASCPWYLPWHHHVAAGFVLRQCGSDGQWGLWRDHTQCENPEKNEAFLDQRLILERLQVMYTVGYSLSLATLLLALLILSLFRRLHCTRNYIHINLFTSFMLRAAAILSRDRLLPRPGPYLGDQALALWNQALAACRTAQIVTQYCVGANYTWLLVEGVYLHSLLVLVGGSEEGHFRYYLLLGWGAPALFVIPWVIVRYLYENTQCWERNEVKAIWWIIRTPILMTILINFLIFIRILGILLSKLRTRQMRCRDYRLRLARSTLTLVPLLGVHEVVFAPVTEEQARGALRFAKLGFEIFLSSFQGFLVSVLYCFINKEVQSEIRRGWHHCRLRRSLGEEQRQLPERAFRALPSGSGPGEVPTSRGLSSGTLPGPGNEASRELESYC
In short: (§1)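 Cells were stimulated with peptide for 30 min at 37° C, then intracellular cAMP was measured by competitive HTRF (665/620 nm ratio) and converted to nM using a cAMP standard curve. Relative EC50 and Emax came from four-parameter logistic fits of percent maximal response against peptide concentration.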

hGCGR = molecular target: T2, hGCGR (Homo sapiens, UniProt P47871); experiment: Functional cAMP formation (HTRF) in HEK-293 clonal cells expressing hGCGR, 0.1% bovine casein, without or with 1.0% human serum albumin; settings: geometric mean, read-out: hGCGR EC50, nM (SEM, n)
T2 construct: expressed in transfected cells
T2 sequence (P47871 26-477): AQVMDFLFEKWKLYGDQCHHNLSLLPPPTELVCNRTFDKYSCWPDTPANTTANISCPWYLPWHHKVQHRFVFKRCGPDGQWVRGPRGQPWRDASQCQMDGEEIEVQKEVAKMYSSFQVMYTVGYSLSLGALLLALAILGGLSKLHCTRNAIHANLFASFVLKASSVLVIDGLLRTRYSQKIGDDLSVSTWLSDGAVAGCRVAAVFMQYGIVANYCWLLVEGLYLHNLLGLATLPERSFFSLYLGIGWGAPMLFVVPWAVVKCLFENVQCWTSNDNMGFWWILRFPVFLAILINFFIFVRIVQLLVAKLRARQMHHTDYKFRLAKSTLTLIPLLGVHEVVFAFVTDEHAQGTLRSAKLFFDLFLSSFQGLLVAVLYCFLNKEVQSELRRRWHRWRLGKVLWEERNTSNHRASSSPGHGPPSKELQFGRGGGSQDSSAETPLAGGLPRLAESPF
In short: as §1

hGLP-1R = hGLP-1R (Homo sapiens, UniProt P43220); experiment: Functional cAMP formation (HTRF) in HEK-293 clonal cells expressing hGLP-1R, 0.1% bovine casein, without or with 1.0% human serum albumin; design: expressed in transfected cells; settings: 37° C.
Sequence of hGLP-1R (P43220 24-463): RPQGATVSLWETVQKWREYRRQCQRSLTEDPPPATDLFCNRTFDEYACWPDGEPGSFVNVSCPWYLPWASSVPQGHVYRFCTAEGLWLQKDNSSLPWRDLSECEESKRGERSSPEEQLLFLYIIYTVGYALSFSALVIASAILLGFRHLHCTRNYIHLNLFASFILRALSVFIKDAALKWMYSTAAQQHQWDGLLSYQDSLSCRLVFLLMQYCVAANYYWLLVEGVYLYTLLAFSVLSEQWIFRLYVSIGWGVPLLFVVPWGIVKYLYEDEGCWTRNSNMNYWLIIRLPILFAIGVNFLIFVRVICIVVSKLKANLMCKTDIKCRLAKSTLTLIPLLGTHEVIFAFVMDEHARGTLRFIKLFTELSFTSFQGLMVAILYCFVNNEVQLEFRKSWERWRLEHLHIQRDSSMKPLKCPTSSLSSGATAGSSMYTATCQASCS
In short: as §1

[1] = HEK293, 0.1% bovine casein and 1.0% human serum albumin, percent of maximal response to GIP(1-42)NH2
[2] = 0.1% bovine casein and 1.0% human serum albumin, 37° C.

SMILES | Emax (hGIPR; [1]) [%] | Emax (hGIPR; HEK293, percent of maximal response to GIP(1-42)NH2, 0.1% bovine casein, arithmetic mean) [%] | EC50 (hGCGR; [2]) [nM] | EC50 (hGCGR; cAMP, incubated at 37° C., 0.1% bovine casein (no human serum albumin)) [nM] | Emax (hGLP-1R; HEK293, percent of maximal response to GLP-1(7-36)NH2, 0.1% bovine casein, arithmetic mean, read-out: hGLP-1R Emax, % ± SEM) [%] | Emax (hGIPR; HEK293, cAMP, 0.1% bovine casein, percent of maximal response to GIP(1-42)NH2, arithmetic mean) [%] | EC50 (hGIPR; cAMP, 0.1% bovine casein (no human serum albumin), geometric mean, read-out: hGIPR EC50, nM (SEM, n)) [nM] | EC50 (hGCGR; cAMP, 37° C., 0.1% bovine casein (no human serum albumin)) [nM] | EC50 (hGLP-1R; cAMP, 0.1% bovine casein (no human serum albumin), geometric mean, read-out: hGLP-1R EC50, nM (SEM, n)) [nM]
CC[C@H](C)[C@H](NC(=O)[C@H](CC(C)C)NC(=O)[C@](C)(Cc1ccc(O)cc1)NC(=O)[C@@H](CCC(=O)O)NC(=O)[C@@H](NC(=O)[C@H](Cc1ccccc1)NC(=O)[C@H](CCC(=O)O)NC(=O)C(C)(C)NC(=O)[C@H](CCC(N)=O)NC(=O)[C@H](C)NC(=O)[C@H](CCCCNC(=O)COCCOCCNC(=O)COCCOCCNC(=O)CC[C@H](NC(=O)CCCCCCCCCCCCC(=O)O)C(=O)O)NC(=O)[C@H](CCCN)NC(=O)[C@H](CC(=O)O)NC(=O)[C@H](CC(C)C)NC(=O)[C@](C)(CC(C)C)NC(=O)[C@@H](NC(=O)[C@](C)(CO)NC(=O)[C@H](Cc1ccncc1)NC(=O)[C@H](CC(=O)O)NC(=O)[C@H](CO)NC(=O)[C@@H](NC(=O)[C@](C)(Cc1ccccc1F)NC(=O)[C@@H](NC(=O)CNC(=O)[C@H](CCC(=O)O)NC(=O)C(C)(C)NC(=O)[C@@H](N)Cc1ccc(O)cc1)[C@@H](C)O)[C@@H](C)O)[C@@H](C)CC)[C@@H](C)CC)C(=O)N[C@@H](CCC(=O)O)C(=O)NCC(=O)NCC(=O)N[C@@H](CCCCNC(=O)COCCOCCNC(=O)COCCOCCNC(=O)CC[C@H](NC(=O)CCCCCCCCCCCCC(=O)O)C(=O)O)C(=O)N[C@@H](CO)C(=O)N[C@@H](CO)C(=O)NCC(=O)N[C@@H](C)C(=O)N1CCC[C@H]1C(=O)N1CCC[C@H]1C(=O)N1CCC[C@H]1C(=O)N[C@@H](CO)C(N)=O [Example 213] | 95.6 | 92 | > 9950 | > 9950 | 94.8 |  |  |  | 
CC[C@H](C)[C@H](NC(=O)[C@H](CC(C)C)NC(=O)[C@](C)(Cc1ccc(O)cc1)NC(=O)[C@@H](CCC(=O)O)NC(=O)[C@@H](NC(=O)[C@H](Cc1ccccc1)NC(=O)[C@H](CCCCNC(=O)COCCOCCNC(=O)COCCOCCNC(=O)CCCCCCCCCCCCC(=O)O)NC(=O)C(C)(C)NC(=O)[C@H](CCC(N)=O)NC(=O)[C@H](C)NC(=O)[C@H](CCCCNC(=O)COCCOCCNC(=O)COCCOCCNC(=O)CCCCCCCCCCCCC(=O)O)NC(=O)[C@H](CCCN)NC(=O)[C@H](CC(=O)O)NC(=O)[C@H](CC(C)C)NC(=O)[C@](C)(CC(C)C)NC(=O)[C@@H](NC(=O)[C@H](CO)NC(=O)[C@H](Cc1ccc(OC)cc1)NC(=O)[C@H](CC(=O)O)NC(=O)[C@H](CO)NC(=O)[C@@H](NC(=O)[C@](C)(Cc1ccccc1F)NC(=O)[C@@H](NC(=O)CNC(=O)[C@H](CCC(=O)O)NC(=O)C(C)(C)NC(=O)[C@@H](N)Cc1ccc(O)cc1)[C@@H](C)O)[C@@H](C)O)[C@@H](C)CC)[C@@H](C)CC)C(=O)N[C@@H](CCC(=O)O)C(=O)NCC(=O)NCC(=O)N1CCC[C@H]1C(=O)N[C@@H](CO)C(=O)N[C@@H](CO)C(=O)NCC(=O)N[C@@H](C)C(=O)N1CCC[C@H]1C(=O)N1CCC[C@H]1C(=O)N1CCC[C@H]1C(=O)N[C@@H](CO)C(N)=O [Example 265] (H-Y[Aib]EGT[αMePhe(2-F)]TSDY(Me)SI[αMeL]LD[Orn]K([AEEA-AEEA-C14 diacid])AQ[Aib]K([AEEA-AEEA-C14 diacid])FI[dE][αMeY]LIEGGPSSGAPPPS-NH2) | 96 |  | > 9950 |  |  | 100 | 0.0145 | > 9950 | 0.262
